# In patent publication US20260193293A1, “PEPTIDES CAPABLE OF INHIBITING PROTEIN-PROTEIN INTERACTIONS AT GABAB1A SUBUNIT AND USES THEREOF” (UNIVERSITY OF COPENHAGEN, priority 2022, published 2026):
# Read-outs that look alike come from different tables or passages of the source. Residues, ends and D or L forms follow the SMILES beside them.
# Molecular target: Sushi domains (SD1/2) protein
# Test: Fluorescence polarization (FP) competition assay with AJAP-1probe, calculated Ki
# Format: binding
# Description: Fluorescence polarization (FP). FP assay was employed to determine the binding affinity of peptides in flat bottom black 384-well plates (Corning Life Science) using a Safire2 plate reader (Tecan). All experiments were conducted in 1×PBS (pH 7.4) containing 1% bovine serum albumin (BSA) at rt. The fluorescence polarization values were measured using excitation/emission wavelengths of 530/580 nm. The instrumental Z-factor was adjusted to obtain the maximum fluorescence intensity and the G-factor was calibrated to give an initial millipolarization value of 20 mP. All FP assays including saturation or competition experiments were performed using 25 nM of TAMRA labeled peptides as probes. For saturation assay, the millipolarization values were measured after mixing of probes with 12 serial 1 to 1 diluted concentrations of Sushi domains (SD1/2) protein. All experiments were performed in triplicate and the data were plotted to the one-site binding model using GraphPad Prism 9 to calculate the Kd of probes. […] The experiments were performed at least in triplicate and the data were fitted to the sigmoidal dose response curve using GraphPad Prism 9 to obtain the IC50 of peptides. The Ki values were calculated according to Nikolovska-Coleska et al^310.
# [1] = Table 4, truncation and elongation scans of APP epitope, read-out: Ki (nM) mean ± SEM
structure (smiles),measurement,setting,value
CC[C@H](C)[C@H](NC(=O)[C@H](Cc1c[nH]c2ccccc12)NC(=O)[C@H](CC(=O)O)NC(=O)[C@H](CC(=O)O)NC(=O)[C@H](CC(=O)O)NC(=O)[C@H](CCC(=O)O)NC(=O)[C@H](CCCNC(=N)N)NC(=O)[C@H](CCCNC(=N)N)NC(=O)[C@H](CCCNC(=N)N)NC(=O)[C@H](CCC(N)=O)NC(=O)[C@H](CCCNC(=N)N)NC(=O)[C@H](CCCNC(=N)N)NC(=O)[C@H](CCCCN)NC(=O)[C@H](CCCCN)NC(=O)[C@H](CCCNC(=N)N)NC(=O)CNC(=O)[C@H](Cc1ccc(O)cc1)NC(C)=O)C(=O)N[C@@H](CC(=O)O)C(=O)N[C@@H](Cc1c[nH]c2ccccc12)C(=O)N[C@@H](Cc1ccc(O)cc1)C(=O)N[C@@H](CC(=O)O)C(=O)N[C@@H](CO)C(=O)N[C@@H](CC(=O)O)C(=O)N[C@@H](CC(=O)O)C(=O)N[C@@H](CC(=O)O)C(N)=O [Tat-16] (Ac-YGRKKRRQRRREDDDWIDWYDSDDD-NH2),Ki,"CPP tagged peptides overview, SD1/2 binding affinity, mean ± SEM, n ≥ 3, read-out: Ki",83 ± 1 nM
same,Ki,"Table 14, CPPs tagged peptides, read-out: Ki (nM) mean ± SEM",83.4 ± 1 nM
CC(=O)N[C@@H](CCC(=O)O)C(=O)N[C@@H](CCC(=O)O)C(=O)N[C@@H](CC(=O)O)C(=O)N[C@@H](CC(=O)O)C(=O)N[C@@H](CO)C(=O)N[C@@H](CC(=O)O)C(=O)N[C@H](C(=O)N[C@@H](Cc1c[nH]c2ccccc12)C(=O)N[C@@H](Cc1c[nH]c2ccccc12)C(=O)NCC(=O)NCC(=O)N[C@@H](C)C(=O)N[C@@H](CC(=O)O)C(=O)N[C@H](C(=O)N[C@@H](CC(=O)O)C(=O)N[C@@H](Cc1ccc(O)cc1)C(=O)N[C@@H](C)C(=O)N[C@@H](CC(=O)O)C(=O)NCC(=O)NCC(N)=O)[C@@H](C)O)C(C)C (Ac-EEDDSDVWWGGADTDYADGG-NH2),Ki,[1],341 ± 6 nM
CC[C@H](C)[C@H](NC(=O)[C@H](Cc1ccccc1)NC(=O)[C@H](CCC(=O)O)NC(=O)[C@@H](NC(=O)[C@H](CCC(=O)O)NC(C)=O)[C@@H](C)O)C(=O)N[C@@H](C)C(=O)N[C@@H](Cc1c[nH]c2ccccc12)C(=O)NCC(=O)N1CCC[C@H]1C(=O)N[C@H](C(=O)NCC(=O)N[C@@H](CC(=O)O)C(=O)N[C@@H](CCCNC(=N)N)C(=O)N[C@@H](CC(=O)O)C(N)=O)[C@@H](C)O (Ac-ETEFIAWGPTGDRD-NH2),Ki,"Table 11, deep mutational scanning validation variants of AJAP-1WT, read-out: Ki (nM) mean ± SEM",54 ± 2 nM
CC[C@H](C)[C@H](NC(=O)[C@H](C)NC(=O)[C@H](Cc1c[nH]c2ccccc12)NC(=O)[C@@H]1CCCN1C(C)=O)C(=O)N[C@H](C(=O)N[C@@H](Cc1c[nH]c2ccccc12)C(=O)NCC(=O)N1CCC[C@H]1C(=O)N[C@@H](C)C(=O)N[C@H](C(=O)N[C@@H](CO)C(=O)N[C@@H](CCCNC(=N)N)C(=O)N[C@@H](CCC(=O)O)C(=O)N[C@@H](CC(=O)O)C(N)=O)C(C)C)C(C)C [PWAIVWGPAVSRED] (Ac-PWAIVWGPAVSRED-NH2),Ki,"Table 9, Ala-, D-amino acids and N-methylation scans of PIANPWT, read-out: Ki (nM) mean ± SEM",1030 ± 26 nM
CCOc1ccc(C[C@H](NC(=O)[C@H](Cc2c[nH]c3ccccc23)NC(=O)[C@H](Cc2c[nH]c3ccccc23)NC(=O)[C@@H](NC(=O)[C@H](CC(=O)O)NC(=O)[C@H](CO)NC(=O)[C@H](CC(=O)O)NC(=O)[C@H](CC(=O)O)NC(=O)[C@H](CCC(=O)O)NC(C)=O)C(C)C)C(=O)NCC(=O)N[C@@H](C)C(=O)N[C@@H](CC(=O)O)C(=O)N[C@H](C(=O)N[C@@H](CC(=O)O)C(N)=O)[C@@H](C)O)cc1 (Ac-EDDSDVWWY(Et)GADTD-NH2),Ki,"Table 16, ncAAs incorporated peptides, read-out: Ki (nM) mean ± SEM",113 ± 2 nM
CC(=O)N[C@@H](C)C(=O)N[C@@H](CCC(=O)O)C(=O)N[C@@H](CCC(=O)O)C(=O)N[C@@H](CC(=O)O)C(=O)N[C@@H](CC(=O)O)C(=O)N[C@@H](CO)C(=O)N[C@@H](CC(=O)O)C(=O)N[C@H](C(=O)N[C@@H](Cc1c[nH]c2ccccc12)C(=O)N[C@@H](Cc1c[nH]c2ccccc12)C(=O)NCC(=O)NCC(=O)N[C@@H](C)C(=O)N[C@@H](CC(=O)O)C(=O)N[C@H](C(=O)N[C@@H](CC(=O)O)C(=O)N[C@@H](Cc1ccc(O)cc1)C(=O)N[C@@H](C)C(=O)N[C@@H](CC(=O)O)C(N)=O)[C@@H](C)O)C(C)C,Ki,[1],237 ± 8 nM
